Values of other authors in patent US20110052648A1, “ORAL MODIFIED-RELEASE FORMULATIONS CONTAINING THIAZEPINES” (priority 2008, published 2011).

- solubility in water: moderately soluble
SMILES: OCCOCCN1CCN(C2=Nc3ccccc3Sc3ccccc32)CC1 [Quetiapine, 11-[4-[2-(2-hydroxyethoxy)ethyl]-1-piperazinyl]dibenzo[b,f][1,4]-thiazepine]
